From publication PMC11649115, “In vitro safety evaluation of dopamine D3R antagonist, R-VK4-116, as a potential medication for the treatment of opioid use disorder” (PLOS ONE, 2024)
Where two headings read alike, the source gives them in different places.

Legend:
[1] = tested on: human hepatocytes; assay: MTT assay, hepatocyte viability; type: cell-based
[2] = biological target: T1, hGABAA∞1β2γ2 (Homo sapiens, UniProt P14867+P18507+P47870); assay: IonFlux HT electrophysiological assay; type: cell-based; settings: 10 μM
T1 construct: Eurofins Cerep (France) and Eurofins Discovery (St. Charles, MO)
Procedure: Electrophysiological assays were also conducted to profile R-VK4-116 for activities on ion channel targets. The QPatch HT (patch clamp) measured the agonist or antagonist activity of R-VK4-116 on ion channels. For these assays, the voltage was used as the ligand to activate the channel and induce a measurable current. The IonFlux HT measured the agonist, antagonist, or PAM activity of R-VK4-116 on ligand-gated ion channels. For these assays, GABA or Acetylcholine (ACh) was used as the ligand to activate the channel and induce measurable current. The six ion channels tested at 10 μM of R-VK4-116 in replicate were hNav1.5 Peak, hERG, hKCNQ1/minK, hCav1.2, hGABAA∞1/β2g2 and hnAChR∞4/β2.

[3] = biological target: T2, OCT2 (Homo sapiens, UniProt O15244); assay: Transporter mediated assay (substrate/inhibitor), MDCK-II cells; type: in vitro ADME
T2 construct: expressed in transfected cells; host or cells: MDCK-II cells
T2 sequence (O15244 1-555): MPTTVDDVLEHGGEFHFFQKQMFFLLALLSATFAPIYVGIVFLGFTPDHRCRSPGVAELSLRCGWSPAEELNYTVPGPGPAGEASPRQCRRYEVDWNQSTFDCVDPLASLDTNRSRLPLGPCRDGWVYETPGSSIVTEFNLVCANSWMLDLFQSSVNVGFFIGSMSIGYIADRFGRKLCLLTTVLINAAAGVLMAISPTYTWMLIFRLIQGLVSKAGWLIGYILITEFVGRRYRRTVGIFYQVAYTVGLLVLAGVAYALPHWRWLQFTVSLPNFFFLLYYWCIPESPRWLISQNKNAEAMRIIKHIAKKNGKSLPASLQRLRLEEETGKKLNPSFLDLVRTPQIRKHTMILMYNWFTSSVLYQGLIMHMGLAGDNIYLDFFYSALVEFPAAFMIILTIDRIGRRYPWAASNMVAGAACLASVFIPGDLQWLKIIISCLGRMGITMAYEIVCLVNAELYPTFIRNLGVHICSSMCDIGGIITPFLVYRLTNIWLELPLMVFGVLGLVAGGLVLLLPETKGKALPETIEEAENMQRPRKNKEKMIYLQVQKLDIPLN
Procedure: The MDCK-II cells were treated to express the transporter of interest. The transport of each probe substrate was determined by radiometric detection (Fig 1 in S1 File). […] For the uptake assay, the net transporter-mediated uptake-rate (V) of the substrate by each SLC transporter was calculated as follows: Transporter–mediatedupdaterate(pmol/min/cm^2)=(Cellularaccumulationincellsexpressingthetransporter)−(Meancellularaccumulationincontrolcells)/Surfacearea×incubationtime
Fold of activity and percent inhibition were determined as follows: Foldofactivity=(Meanuptakerate)transporterexpressingcells/(Meanuptakerate)controlcells Percentinhibition=100−100×(Transport‐mediatedupdaterate)withinhibitor/(Transport‐mediatedupdaterate)vehiclecontrol

[4] = biological target: T3, Kir2.1 (Homo sapiens, UniProt P63252); assay: CiPA IonChannelProfiler Cardiac Panel, QPatch; type: cell-based; settings: Kir2.1, 100 μM
T3 sequence (P63252 1-427): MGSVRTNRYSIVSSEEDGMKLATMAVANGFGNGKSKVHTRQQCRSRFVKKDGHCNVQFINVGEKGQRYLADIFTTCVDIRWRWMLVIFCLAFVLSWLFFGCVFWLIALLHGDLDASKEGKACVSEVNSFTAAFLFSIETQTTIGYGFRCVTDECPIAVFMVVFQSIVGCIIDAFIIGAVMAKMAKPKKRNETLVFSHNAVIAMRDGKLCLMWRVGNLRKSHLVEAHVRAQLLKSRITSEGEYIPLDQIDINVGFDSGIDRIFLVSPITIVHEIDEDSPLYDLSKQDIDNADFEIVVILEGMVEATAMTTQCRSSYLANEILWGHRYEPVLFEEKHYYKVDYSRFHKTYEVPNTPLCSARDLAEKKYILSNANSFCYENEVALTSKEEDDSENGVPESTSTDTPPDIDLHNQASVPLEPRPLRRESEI

[5] = tested on: oxycodone self-administration; set-up: method as in PMID 30555159; settings: rodents, 5, 15 and 25 mg/kg ref 6; cited from earlier work
[6] = biological target: T4, V1a(h) (Homo sapiens, UniProt P37288); assay: Cellular and nuclear receptor functional assay, antagonist effect; type: cell-based; settings: 10 μM
T4 construct: Eurofins Cerep (France) and Eurofins Discovery (St. Charles, MO)
Procedure: (§1) The purpose of this study was to provide a first step in preliminary safety assessments by providing early identification of potential off-target interactions for the optimization of safety margins. This study was conducted by Eurofins Cerep (France) and Eurofins Discovery (St. Charles, MO). R-VK4-116 was tested in enzyme and uptake assay with 10 enzyme targets (Figs 4 and 5 in S1 File), and cellular and nuclear receptor functional assays with 24 receptor targets (Figs 5 and 6 in S1 File). Compound enzyme inhibition effect was calculated as a % inhibition of control enzyme activity. The cellular agonist effect was calculated as a % of the control response to a known reference agonist for each target, and the cellular antagonist effect was calculated as a % inhibition of the control reference agonist response for each target.

[7] = biological target: T5, 5-HT2B(h) (Homo sapiens, UniProt P41595); assay: as above; type: cell-based; settings: 10 μM
T5 construct: Eurofins Cerep (France) and Eurofins Discovery (St. Charles, MO)
Procedure: as §1

[8] = biological target: T6, H1(h) (Homo sapiens, UniProt P35367); assay: as above; type: cell-based
T6 construct: Eurofins Cerep (France) and Eurofins Discovery (St. Charles, MO)
Procedure: as §1

[9] = biological target: T7, α1A(h) (Homo sapiens, UniProt P35348); assay: as above; type: cell-based
T7 construct: Eurofins Cerep (France) and Eurofins Discovery (St. Charles, MO)
Procedure: as §1

[10] = biological target: CYP2C19 (Homo sapiens, UniProt P33261); assay: CYP inhibition in human liver microsomes; settings: human liver microsomes
Chain of CYP2C19 (P33261 whole entry): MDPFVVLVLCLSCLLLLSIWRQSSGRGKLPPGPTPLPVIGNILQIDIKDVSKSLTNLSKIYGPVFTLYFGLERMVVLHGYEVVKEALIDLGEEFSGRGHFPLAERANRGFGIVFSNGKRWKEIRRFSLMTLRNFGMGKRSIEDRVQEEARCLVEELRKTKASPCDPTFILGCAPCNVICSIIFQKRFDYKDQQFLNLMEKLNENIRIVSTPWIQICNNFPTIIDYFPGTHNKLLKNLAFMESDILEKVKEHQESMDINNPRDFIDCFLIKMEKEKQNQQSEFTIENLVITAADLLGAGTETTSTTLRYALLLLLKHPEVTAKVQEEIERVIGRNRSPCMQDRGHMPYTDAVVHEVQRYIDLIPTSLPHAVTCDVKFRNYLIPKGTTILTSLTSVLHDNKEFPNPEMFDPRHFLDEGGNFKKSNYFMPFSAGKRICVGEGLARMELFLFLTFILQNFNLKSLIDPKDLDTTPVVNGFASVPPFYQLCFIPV

T4 sequence (P37288 whole entry): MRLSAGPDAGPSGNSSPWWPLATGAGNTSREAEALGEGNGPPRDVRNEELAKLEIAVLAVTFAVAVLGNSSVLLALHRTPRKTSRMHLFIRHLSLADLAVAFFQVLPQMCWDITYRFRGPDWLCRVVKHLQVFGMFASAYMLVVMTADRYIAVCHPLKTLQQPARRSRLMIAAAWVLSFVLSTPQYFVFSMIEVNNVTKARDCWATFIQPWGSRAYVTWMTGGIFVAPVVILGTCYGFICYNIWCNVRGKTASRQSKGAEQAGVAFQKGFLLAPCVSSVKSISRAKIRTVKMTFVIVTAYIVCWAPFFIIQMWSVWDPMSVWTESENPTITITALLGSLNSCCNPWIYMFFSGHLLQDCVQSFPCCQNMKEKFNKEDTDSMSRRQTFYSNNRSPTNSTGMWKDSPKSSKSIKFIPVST
T7 sequence (P35348 whole entry): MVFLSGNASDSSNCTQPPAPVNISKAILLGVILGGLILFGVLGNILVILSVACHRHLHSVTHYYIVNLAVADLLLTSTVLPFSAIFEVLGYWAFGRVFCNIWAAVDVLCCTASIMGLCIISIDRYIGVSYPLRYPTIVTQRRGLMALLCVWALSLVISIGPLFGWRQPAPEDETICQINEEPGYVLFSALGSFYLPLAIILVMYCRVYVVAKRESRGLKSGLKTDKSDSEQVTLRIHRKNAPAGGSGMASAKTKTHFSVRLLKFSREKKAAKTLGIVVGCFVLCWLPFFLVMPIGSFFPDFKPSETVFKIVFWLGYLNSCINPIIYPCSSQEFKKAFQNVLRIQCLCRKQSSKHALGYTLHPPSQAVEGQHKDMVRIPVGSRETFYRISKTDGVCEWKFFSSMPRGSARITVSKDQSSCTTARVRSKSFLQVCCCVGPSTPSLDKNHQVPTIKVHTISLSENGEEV
T6 sequence (P35367 whole entry): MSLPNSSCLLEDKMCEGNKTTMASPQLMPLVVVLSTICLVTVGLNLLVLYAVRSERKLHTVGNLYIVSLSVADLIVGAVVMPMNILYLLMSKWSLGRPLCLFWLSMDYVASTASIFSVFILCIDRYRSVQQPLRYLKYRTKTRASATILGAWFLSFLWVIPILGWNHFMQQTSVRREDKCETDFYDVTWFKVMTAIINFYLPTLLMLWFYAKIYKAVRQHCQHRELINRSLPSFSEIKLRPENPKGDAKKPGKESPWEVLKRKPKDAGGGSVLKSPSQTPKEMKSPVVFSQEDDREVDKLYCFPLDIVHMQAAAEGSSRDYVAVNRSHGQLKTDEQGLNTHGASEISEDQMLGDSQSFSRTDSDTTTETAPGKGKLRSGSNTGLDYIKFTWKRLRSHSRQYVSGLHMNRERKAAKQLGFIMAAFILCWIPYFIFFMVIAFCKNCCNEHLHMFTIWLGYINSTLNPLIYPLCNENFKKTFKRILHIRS
T1 sequence (P14867 28-456): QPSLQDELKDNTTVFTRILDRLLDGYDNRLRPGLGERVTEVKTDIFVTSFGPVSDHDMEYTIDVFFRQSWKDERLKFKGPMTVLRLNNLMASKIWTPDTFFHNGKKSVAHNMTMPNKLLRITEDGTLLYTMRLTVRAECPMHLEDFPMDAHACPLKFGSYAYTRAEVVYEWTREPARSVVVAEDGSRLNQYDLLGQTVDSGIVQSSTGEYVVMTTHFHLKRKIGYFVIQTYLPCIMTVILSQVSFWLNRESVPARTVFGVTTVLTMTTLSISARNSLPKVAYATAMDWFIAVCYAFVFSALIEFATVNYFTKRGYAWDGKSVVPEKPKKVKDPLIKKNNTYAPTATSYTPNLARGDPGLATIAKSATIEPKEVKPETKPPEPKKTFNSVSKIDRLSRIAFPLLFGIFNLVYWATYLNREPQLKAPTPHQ
T1 sequence (P47870 25-512 limits assumed): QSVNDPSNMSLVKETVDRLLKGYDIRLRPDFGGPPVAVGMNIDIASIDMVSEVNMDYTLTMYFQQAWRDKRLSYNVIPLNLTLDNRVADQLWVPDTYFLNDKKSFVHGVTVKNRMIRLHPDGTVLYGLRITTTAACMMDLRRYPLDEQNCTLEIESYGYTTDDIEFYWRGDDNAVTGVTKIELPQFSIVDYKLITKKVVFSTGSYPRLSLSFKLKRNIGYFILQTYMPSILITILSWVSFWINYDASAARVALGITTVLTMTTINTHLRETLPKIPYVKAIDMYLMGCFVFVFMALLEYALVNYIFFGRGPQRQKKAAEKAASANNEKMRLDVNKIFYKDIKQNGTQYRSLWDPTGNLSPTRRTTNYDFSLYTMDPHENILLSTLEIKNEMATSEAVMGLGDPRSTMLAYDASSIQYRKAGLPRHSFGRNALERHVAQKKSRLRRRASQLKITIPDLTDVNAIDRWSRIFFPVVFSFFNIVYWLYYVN
T1 sequence (P18507 40-475): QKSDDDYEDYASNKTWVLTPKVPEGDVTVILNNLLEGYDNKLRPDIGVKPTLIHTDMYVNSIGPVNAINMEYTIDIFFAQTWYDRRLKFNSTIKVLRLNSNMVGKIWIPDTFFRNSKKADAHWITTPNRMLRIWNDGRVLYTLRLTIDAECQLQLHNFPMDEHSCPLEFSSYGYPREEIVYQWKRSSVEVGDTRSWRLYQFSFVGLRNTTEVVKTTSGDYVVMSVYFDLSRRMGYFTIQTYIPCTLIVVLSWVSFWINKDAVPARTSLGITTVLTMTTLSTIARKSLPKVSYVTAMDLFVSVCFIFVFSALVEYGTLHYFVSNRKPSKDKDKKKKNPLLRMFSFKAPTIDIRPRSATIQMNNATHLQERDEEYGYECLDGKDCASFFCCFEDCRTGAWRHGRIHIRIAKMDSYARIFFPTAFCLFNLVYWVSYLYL
T5 sequence (P41595 whole entry): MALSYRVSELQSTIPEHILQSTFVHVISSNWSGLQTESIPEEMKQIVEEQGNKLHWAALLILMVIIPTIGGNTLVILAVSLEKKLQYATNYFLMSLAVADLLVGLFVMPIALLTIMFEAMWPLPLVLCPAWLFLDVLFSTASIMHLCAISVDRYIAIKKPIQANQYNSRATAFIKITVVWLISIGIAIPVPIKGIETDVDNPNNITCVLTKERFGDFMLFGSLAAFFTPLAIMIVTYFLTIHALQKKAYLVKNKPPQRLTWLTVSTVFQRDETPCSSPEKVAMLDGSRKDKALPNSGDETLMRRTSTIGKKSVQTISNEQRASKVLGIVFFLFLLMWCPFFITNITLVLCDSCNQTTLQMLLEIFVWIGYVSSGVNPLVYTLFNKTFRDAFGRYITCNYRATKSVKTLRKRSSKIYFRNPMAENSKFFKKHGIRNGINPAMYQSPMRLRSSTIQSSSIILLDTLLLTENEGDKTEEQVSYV

CCc1cc(Cl)c(OC)c(N2CCN(CC(O)CCNC(=O)c3cc4ccccc4[nH]3)CC2)c1 (stereo not drawn) [R-VK4-116, N-(4-(4-(3-chloro-5-ethyl-2-methoxyphenyl)piperazin-1-yl)-3-hydroxybutyl)-1H-indole-2-carboxamide]
Hepatocyte Viability, MTT Assay Upfront (Mean) ([1]; 0.01 µM): 93
Hepatocyte Viability, MTT Assay Upfront (Mean) ([1]; 0.1 µM): 105
Hepatocyte Viability, MTT Assay Upfront (Mean) ([1]; 1 µM): 86
Hepatocyte Viability, MTT Assay Upfront (Mean) ([1]; 3 µM): 91
Hepatocyte Viability, MTT Assay Upfront (Mean) ([1]; 10 μM): 73
Hepatocyte Viability, MTT Assay Upfront (Mean) ([1]; 30 µM): 73
Hepatocyte Viability, Concurrent MTT Assay (Mean) ([1]; Lot 336, 0.01 µM): 96
Hepatocyte Viability, Concurrent MTT Assay (Mean) ([1]; Lot 336, 0.10 µM): 90
Hepatocyte Viability, Concurrent MTT Assay (Mean) ([1]; Lot 336, 1 µM): 91
Hepatocyte Viability, Concurrent MTT Assay (Mean) ([1]; Lot 336, 3 µM): 80
Hepatocyte Viability, Concurrent MTT Assay (Mean) ([1]; Lot 336, 5 µM): 75
Hepatocyte Viability, Concurrent MTT Assay (Mean) ([1]; Lot 336, 10 µM): 73
Hepatocyte Viability, Concurrent MTT Assay (Mean) ([1]; Lot 348B, 0.01 µM): 100
Hepatocyte Viability, Concurrent MTT Assay (Mean) ([1]; Lot 348B, 0.10 µM): 101
Hepatocyte Viability, Concurrent MTT Assay (Mean) ([1]; Lot 348B, 1 µM): 104
Hepatocyte Viability, Concurrent MTT Assay (Mean) ([1]; Lot 348B, 3 µM): 96
Hepatocyte Viability, Concurrent MTT Assay (Mean) ([1]; Lot 348B, 5 µM): 97
Hepatocyte Viability, Concurrent MTT Assay (Mean) ([1]; Lot 348B, 10 µM): 102
Hepatocyte Viability, Concurrent MTT Assay (Mean) ([1]; Lot 399, 0.01 µM): 107
Hepatocyte Viability, Concurrent MTT Assay (Mean) ([1]; Lot 399, 0.10 µM): 104
Hepatocyte Viability, Concurrent MTT Assay (Mean) ([1]; Lot 399, 1 µM): 95
Hepatocyte Viability, Concurrent MTT Assay (Mean) ([1]; Lot 399, 3 µM): 88
Hepatocyte Viability, Concurrent MTT Assay (Mean) ([1]; Lot 399, 5 µM): 86
Hepatocyte Viability, Concurrent MTT Assay (Mean) ([1]; Lot 399, 10 µM): 91
hepatocyte viability, concurrent MTT assay ([1]; ≤ 10 μM): no decrease of hepatocyte viability
agonist effect [2]: 97.71%
fold difference in mean uptake rate (substrate test) ([3]; OCT2, 1 μM, transporter cells vs control cells): < 2 fold
Inhibition (%) ([3]; OCT2, 0.1% BSA, 10 μM): no statistically significant inhibition
inhibition at 10 µM ([3]; human, polarized monolayer of MDCK-II cells expressing OCT2, OCT2, 0.1% BSA, 10 μM): -17.4 ± 1.88%
inhibition at 100 µM ([4]; read-out: inhibition, End): 97.2%
inhibition at 100 µM ([4]; read-out: inhibition, Peak): 52.6%
oxycodone self-administration [5]: decreased
antagonist effect [6]: 27.8%
antagonist effect [7]: 44.6%
inhibition at 10 µM [8]: 86.1%
inhibition at 10 µM [9]: 82.9%
CYP2C19 inhibition ([10]; up to 100 μM): did not inhibit CYP significantly
activity at 20 min, 0.1 µM ([10]; human, probe mephenytoin): 102 ± 4.6%
activity at 20 min, 0.3 µM ([10]; human, probe mephenytoin): 96.2 ± 5%
activity at 20 min, 1 µM ([10]; human, probe mephenytoin): 97.3 ± 2.2%
activity at 20 min, 3 µM ([10]; human, probe mephenytoin): 95.9 ± 3.6%
activity at 20 min, 10 µM ([10]; human, probe mephenytoin): 99.6 ± 3.3%
activity at 20 min, 30 µM ([10]; human, probe mephenytoin): 96.7 ± 3.5%
activity at 20 min, 60 µM ([10]; human, probe mephenytoin): 95 ± 5.4%
activity at 20 min, 100 µM ([10]; human, probe mephenytoin): 99.7 ± 3.4%
